From ChEMBL document CHEMBL1201862, “PubChem BioAssay data set” (2004)
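How tested: cells in 96-well plates exposed to compound for 48 hours at five concentrations. GI50 = concentration required for 50% inhibition of growth.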 Activity calls are given as the source filed them. Cut-off read from the data, not from the text of the source: active = GI50 up to about 1.1 µM and inactive = higher.

Columns and labels:
Test in all cases: inhibition of tumour cell growth, NCI panel, 48 h
K562 = system: K562
HCT-15 = system: HCT-15
NCI/ADR-RES = system: NCI/ADR-RES
OVCAR-4 = system: OVCAR-4
SK-MEL-5 = system: SK-MEL-5
Hs-578T = system: Hs-578T
BT-549 = system: BT-549
IGROV-1 = system: IGROV-1
DU-145 = system: DU-145
CAKI-1 = system: CAKI-1
A498 = system: A498
RXF 393 = system: RXF 393
SNB-75 = system: SNB-75
KM12 = system: KM12
SK-OV-3 = system: SK-OV-3
SK-MEL-2 = system: SK-MEL-2
A549 = system: A549
TK-10 = system: TK-10
EKVX = system: EKVX

SMILES | GI50 (K562) | GI50 (HCT-15) [µM] | GI50 (NCI/ADR-RES) | GI50 (OVCAR-4) | GI50 (SK-MEL-5) | GI50 (Hs-578T) | GI50 (BT-549) | GI50 (IGROV-1) | GI50 (DU-145) | GI50 (CAKI-1) | GI50 (A498) | GI50 (RXF 393) | GI50 (SNB-75) | GI50 (KM12) | GI50 (SK-OV-3) | GI50 (SK-MEL-2) | GI50 (A549) | GI50 (TK-10) | GI50 (EKVX)
COc1cc(CN(C)N2C(=O)c3cccc4cc([N+](=O)[O-])cc(c34)C2=O)cc(OC)c1OC | > 100 µM (inactive) | > 100 | > 100 µM (inactive) | > 100 µM (inactive) | > 100 µM (inactive) | 44.1 µM (inactive) | > 100 µM (inactive) | > 100 µM (inactive) | > 100 µM (inactive) | > 100 µM (inactive) | > 100 µM (inactive) | 14.1 µM (inactive) | 25.2 µM (inactive) | > 100 µM (inactive) | 44.1 µM (inactive) | > 100 µM (inactive) | – | – | –
COc1cc(C2c3cc4c(cc3OC(N3CCOCC3)C2C)OCO4)cc(OC)c1OC(C)=O (stereo not given) | 3.81 µM (inactive) | 15 | 4.69 µM (inactive) | 57.3 µM (inactive) | 4.46 µM (inactive) | 2.2 µM (inactive) | 7.89 µM (inactive) | 14.2 µM (inactive) | 26.5 µM (inactive) | 16.6 µM (inactive) | 27.8 µM (inactive) | 11.6 µM (inactive) | 3.74 µM (inactive) | 5.35 µM (inactive) | 11.3 µM (inactive) | 12.9 µM (inactive) | 15 µM (inactive) | 30.7 µM (inactive) | 47.5 µM (inactive)
Cc1cn(CCCCCCOC(=O)NC(CCCNC(N)=O)C(=O)O)c(=O)[nH]c1=O (stereo not given) | > 100 µM (inactive) | > 100 | > 100 µM (inactive) | > 100 µM (inactive) | – | > 100 µM (inactive) | > 100 µM (inactive) | > 100 µM (inactive) | > 100 µM (inactive) | > 100 µM (inactive) | > 100 µM (inactive) | > 100 µM (inactive) | > 100 µM (inactive) | > 100 µM (inactive) | > 100 µM (inactive) | > 100 µM (inactive) | > 100 µM (inactive) | > 100 µM (inactive) | > 100 µM (inactive)
COc1cc(S(=O)(=O)Nc2ccc(-c3csc(N4C(=O)C(Cl)C4c4ccccc4)n3)cc2)ccc1Cl (stereo not given) | 32.2 µM (inactive) | > 100 | > 100 µM (inactive) | 52.6 µM (inactive) | 25.2 µM (inactive) | > 100 µM (inactive) | 26.9 µM (inactive) | 4.63 µM (inactive) | 16 µM (inactive) | > 100 µM (inactive) | 25.9 µM (inactive) | 10.7 µM (inactive) | 22.8 µM (inactive) | 44.2 µM (inactive) | > 100 µM (inactive) | > 100 µM (inactive) | > 100 µM (inactive) | > 100 µM (inactive) | 31.9 µM (inactive)
Cc1c([N+](=O)[O-])ccc2c(NCCCN(C)C)ccnc12 | 48.6 µM (inactive) | 17.3 | 28.2 µM (inactive) | 17.4 µM (inactive) | 16 µM (inactive) | 24 µM (inactive) | 17.9 µM (inactive) | 22.2 µM (inactive) | 33 µM (inactive) | 35.6 µM (inactive) | 34 µM (inactive) | 23.9 µM (inactive) | 25.4 µM (inactive) | 16.7 µM (inactive) | 39.8 µM (inactive) | 17.1 µM (inactive) | 19.8 µM (inactive) | 27.5 µM (inactive) | –
Cc1ccc2c(c1C)C(=O)C1(Cc3cc4c(cc3C1=O)CCC4)C2 (stereo not given) | > 100 µM (inactive) | > 100 | > 100 µM (inactive) | > 100 µM (inactive) | > 100 µM (inactive) | > 100 µM (inactive) | > 100 µM (inactive) | > 100 µM (inactive) | > 100 µM (inactive) | > 100 µM (inactive) | > 100 µM (inactive) | 99.8 µM (inactive) | > 100 µM (inactive) | > 100 µM (inactive) | > 100 µM (inactive) | > 100 µM (inactive) | > 100 µM (inactive) | > 100 µM (inactive) | > 100 µM (inactive)
COC(=O)C1CCN(C(=O)OC(C)(C)C)CC1 | – | > 100 | > 100 µM (inactive) | > 100 µM (inactive) | > 100 µM (inactive) | > 100 µM (inactive) | 0.993 µM (active) | > 100 µM (inactive) | > 100 µM (inactive) | > 100 µM (inactive) | > 100 µM (inactive) | – | > 100 µM (inactive) | > 100 µM (inactive) | – | > 100 µM (inactive) | > 100 µM (inactive) | > 100 µM (inactive) | > 100 µM (inactive)
OCCO[P+]1(OCCO)n2c3ccc2C(c2ccccc2)=C2C=CC(=N2)C(c2ccccc2)=c2ccc(n21)=C(c1ccccc1)C1=NC(=C3c2ccccc2)C=C1 | 0.0109 µM (active) | 1.16 | 3.28 µM (inactive) | 0.0719 µM (active) | 0.0296 µM (active) | 0.0237 µM (active) | 0.0118 µM (active) | 0.022 µM (active) | 0.0316 µM (active) | 0.783 µM (active) | 0.349 µM (active) | 0.182 µM (active) | < 0.0144 µM (active) | 0.0247 µM (active) | 0.0561 µM (active) | 0.0481 µM (active) | 0.0389 µM (active) | 0.119 µM (active) | 0.104 µM (active)
CC(C)(C)c1ccc(O)c(Br)c1 | > 100 µM (inactive) | > 100 | > 100 µM (inactive) | > 100 µM (inactive) | > 100 µM (inactive) | > 100 µM (inactive) | > 100 µM (inactive) | 19.1 µM (inactive) | > 100 µM (inactive) | – | > 100 µM (inactive) | 34.1 µM (inactive) | 15.1 µM (inactive) | 63.5 µM (inactive) | > 100 µM (inactive) | > 100 µM (inactive) | > 100 µM (inactive) | > 100 µM (inactive) | > 100 µM (inactive)
COc1cc2c(c(OC)c1OC)-c1ccc(SC)c(=O)cc1[C@@H](OC(=O)c1ccncc1)CC2 | < 0.01 µM (active) | < 0.01 | < 0.01 µM (active) | 27 µM (inactive) | < 0.01 µM (active) | < 0.01 µM (active) | < 0.01 µM (active) | < 0.01 µM (active) | < 0.01 µM (active) | < 0.01 µM (active) | < 0.0116 µM (active) | 7.78 µM (inactive) | < 0.01 µM (active) | < 0.01 µM (active) | 0.0165 µM (active) | 0.407 µM (active) | < 0.01 µM (active) | 4.92 µM (inactive) | –
CN(C)CCNC(=O)c1cccc2[nH]c(-c3ccncc3)nc12 | 2.64 µM (inactive) | 2.89 | 13.2 µM (inactive) | 9.29 µM (inactive) | 2.75 µM (inactive) | 4.59 µM (inactive) | 11.4 µM (inactive) | 7.5 µM (inactive) | 7.76 µM (inactive) | 2.55 µM (inactive) | 4.05 µM (inactive) | 5.58 µM (inactive) | 7.33 µM (inactive) | 4.17 µM (inactive) | – | 4.28 µM (inactive) | 5.78 µM (inactive) | 6.5 µM (inactive) | 12.4 µM (inactive)
O=c1oc2c/c(=C\c3ccccc3)c(=O)c3cccc1c3-2 | – | 36.6 | 33.7 µM (inactive) | – | > 10 µM (inactive) | 14.8 µM (inactive) | 28.3 µM (inactive) | 23 µM (inactive) | 51.1 µM (inactive) | 24.1 µM (inactive) | > 100 µM (inactive) | 32.5 µM (inactive) | 41.4 µM (inactive) | 24.9 µM (inactive) | > 100 µM (inactive) | – | > 100 µM (inactive) | > 100 µM (inactive) | 75.3 µM (inactive)
CCCNC1=C2C[C@@H](C)C[C@@H](OC)[C@@H](OC(=O)CCCN)[C@H](C)/C=C(\C)[C@@H](OC(N)=O)[C@H](OC)/C=C\C=C(/C)C(=O)NC(=CC1=O)C2=O | 4.75 µM (inactive) | 21.5 | 28.8 µM (inactive) | 18.7 µM (inactive) | 9.29 µM (inactive) | 25.6 µM (inactive) | 13.2 µM (inactive) | 16.1 µM (inactive) | 12.1 µM (inactive) | 20.3 µM (inactive) | 21.8 µM (inactive) | 11.8 µM (inactive) | – | 10.6 µM (inactive) | 16.4 µM (inactive) | 14.9 µM (inactive) | 15.7 µM (inactive) | 17.9 µM (inactive) | 17.6 µM (inactive)
CCOC(=O)c1nc2ccc(C(F)(F)F)cc2nc1Oc1cc(OC)c(OC)c(OC)c1 | 36.7 µM (inactive) | 72.9 | 30.9 µM (inactive) | 2.64 µM (inactive) | 23.1 µM (inactive) | 16.8 µM (inactive) | > 100 µM (inactive) | 51.1 µM (inactive) | 46.8 µM (inactive) | – | > 100 µM (inactive) | 28.7 µM (inactive) | 19.5 µM (inactive) | 40.2 µM (inactive) | > 100 µM (inactive) | > 100 µM (inactive) | 53.7 µM (inactive) | 75.3 µM (inactive) | 35.3 µM (inactive)
O=c1oc2cc(/N=C/c3ccccc3Cl)ccc2c2ccccc12 | 45.9 µM (inactive) | > 100 | > 100 µM (inactive) | > 100 µM (inactive) | > 100 µM (inactive) | > 100 µM (inactive) | > 100 µM (inactive) | > 100 µM (inactive) | > 100 µM (inactive) | > 100 µM (inactive) | > 100 µM (inactive) | > 100 µM (inactive) | > 100 µM (inactive) | > 100 µM (inactive) | – | > 100 µM (inactive) | > 100 µM (inactive) | – | 49.2 µM (inactive)
C=C(C(=O)O)C1CCC(CC/C=C(\C)CC/C=C(\C)CCC=C(C)C)CO1 (stereo not given) | – | 13 | 27.1 µM (inactive) | 27.4 µM (inactive) | 12.5 µM (inactive) | 12 µM (inactive) | 18 µM (inactive) | 18.5 µM (inactive) | 17.5 µM (inactive) | 32.3 µM (inactive) | 19.4 µM (inactive) | 12.4 µM (inactive) | > 100 µM (inactive) | 14.8 µM (inactive) | 82.2 µM (inactive) | 17.3 µM (inactive) | 7.89 µM (inactive) | 23 µM (inactive) | 13.3 µM (inactive)
